Consider one compound from patent US12606543B2, “Indole derivatives as serotonergic agents useful for the treatment of disorders related thereto” (priority 2023, dated 2026).

Series [1] has as its target T1, human 5-HT2B receptor (Homo sapiens, UniProt P41595). The experiment in a line: Human 5-HT2B radioligand binding assay ([3H]-LSD). Here is the method:
The objective of this study was to evaluate the binding properties of test compounds on 5-HT2B.
1) The assay buffer was prepared following Table 29 below.
2) Eight doses of reference and test compounds starting from 10 mM stock solution as requested by 5-fold serial dilutions with 100% (v/v) DMSO.
3) UniFilter-96 GF/B plate was pretreated: • a. 50 μL/well of 0.5% (v/v) PEI to UniFilter-96 GF/B plates. The plates were sealed and incubated at 4° C. for 3 hrs. • b. After incubation, the plates were washed 3 times with ice-cold wash buffer (50 mM Tris, pH 7.4).
4) Assay plate preparation: • a. Cell membrane was diluted with assay buffer and 330 μL/well added to 96 round deep well plates to reach a concentration of 1 unit/well. • b. Eight concentrations of reference or test compounds were prepared and 110 μL/well added to 96 round deep well plates. • c. [3H]-LSD was diluted with assay buffer to 5 nM (5× final concentration) and 110 μL/well was added to 96 round deep well plates.
5) The plate was centrifuged at 1000 rpm for 30 secs and then agitated at 600 rpm at room temperature for 5 mins.
6) The plates were sealed and incubated at 37° C. for 90 mins.
7) The incubation was stopped by vacuum filtration onto GF/B filter plates followed by washing four times with ice-cold wash buffer (50 mM Tris, pH7.4).
9) The filter plates were sealed and 40 μL/well of scintillation cocktail was added.
10) The plate was read using a Microbeta2 microplate counter.
For reference and test compounds, the results are expressed as % Inhibition, using the normalization equation: N=100−100×(U−C2)/(C1−C2), where U is the unknown value, C1 is the average of high controls, and C2 is the average of low controls. The IC50 is determined by fitting percentage of inhibition as a function of compound concentrations with Hill equation.
The objective of this study is to evaluate the binding properties of test compounds on 5-HT2B.
1) The assay buffer was prepared following Table 59 below.
3) UniFilter-96 GF/B plate was pretreated: • a. 50 μL/well of 0.5% (v/v) PEI to UniFilter-96 GF/B plates. The plates were sealed and incubate at 4° C. for 3 hrs. • b. After incubation, the plates were washed three times with ice-cold wash buffer (50 mM Tris, pH7.4).
5) The plate was centrifuged at 1000 rpm for 30 secs and then agitated at 600 rpm at room temperature for 5 min.
8) The plates were dried at 37° C. for 45 mins.
10) The plate was read using a Microbeta^2 microplate counter.
For reference and test compounds, the results are expressed as % Inhibition, using the normalization equation: N=100−100×(U−C2)/(C1−C2), where U is the unknown value, C1 is the average of the high controls, and C2 is the average of the low controls. The IC50 is determined by fitting percentage of inhibition as a function of compound concentrations with Hill equation.

Series [2] can be described thus: Pharmacokinetic studies in rat (i.v.). Conditions: male, Sprague-Dawley, plasma, iv, 1.19 mg/kg, rat plasma; for half-life / AUC(0-t): i.v. 1.19 mg/kg; for concentration at 0.25 h / concentration at 1 h / concentration at 4 h: i.v., dose 1.19 mg/kg. Format: in vivo. The method, then:
Animals: Male Sprague-Dawley rats (˜225-350 g) from Charles River Labs were acclimatized for a minimum of 5 days prior to start of study procedures. Body weights were recorded on the day of dosing.
Any abnormalities were documented including presence/absence of wet dog shakes/back muscle contractions (WDS/BMC).
Dosing: Formulations were administered intravenously (i.v.) via the tail vein using a 25 G needle connected to a 1 cc syringe.
The exemplary compounds of Formula (I) were freshly prepared at the appropriate concentrations in 5% Tween-80 in saline.
Blood collection time (h): 0, […], 1 and 4
Volume/time-point: ˜0.25 mL (saphenous vein)
Instrumentation: AB Sciex QTRAP 4000 or 6500 MS/MS system equipped with an LC system with a binary pump, a solvent degasser, a thermostated column compartment, and a multiplate autosampler.
Analysis software: Phoenix® WinNonlin® 8.3 (Pharsight, Certara, Mountainview, CA).
Analysis methods: non-compartmental analysis, linear up/log down trapezoidal rule.
PK parameters: t1/2 and AUC0-tlast was estimated.
The Compounds of Formula (I) were freshly prepared at the appropriate concentrations in 5% Tween-80 in saline.
Instrumentation: AB Sciex QTRAP 4000 or 6500 MS/MS system equipped with an LC system with a binary pump, a solvent degasser, a thermostated column compartment and a multiplate autosampler.
PK parameters: t1/2 and AUC0-tlast will be estimated.

In series [3] the target is T1, human 5-HT2B receptor. The experiment in a line: Human 5-HT2B FLIPR calcium mobilization assay. The class given is cell-based. The arrangement: expressed in transfected cells; host or cells: HEK293. Here is the method:
Compound potency (EC50) and efficacy (Max response) against the human 5-HT2B receptor in stably transfected HEK293 cells were determined in a calcium mobilization-based assay.
Cells were seeded in a total volume of 20 μL into white walled, 384-well microplates and incubated at 37° C. overnight. Prior to testing, cell plating media was exchanged with 20 μL of Dye Loading buffer (HBSS+20 mM HEPES containing 1× Dye, 1× Additive A, and 2.5 mM Probenecid). Plates were incubated at 37° C. for 45 mins followed by 15 mins at room temperature.
10 μL of assay buffer (HBSS+20 mM HEPES) were added to cells. Intermediate dilution of sample stocks was performed to generate 4× samples in assay buffer. Assay plates and compound plates were loaded into the FLIPR instrument. 10 μL of sample was added using the FLIPR onboard robotics after 5 seconds of starting calcium measurement. A final assay vehicle concentration was 1%. The results are expressed as percent efficacy relative to the maximum response of the control ligand (serotonin) in Table 12.
Compound potency (EC50) and efficacy (Max response) against the human 5-HT2B receptor in stably transfected HE K293 cells was determined in a calcium mobilization-based assay.
10 μL of assay buffer (HBSS+20 mM HEPES) was added to cells. Intermediate dilution of sample stocks was performed to generate 4× samples in assay buffer. Assay plates and compound plates were loaded into the FLIPR instrument. 10 μL of samples were added using the FLIPR onboard robotics after 5 secs of starting calcium measurement. The final assay vehicle concentration was 1%. The results are expressed as percent efficacy relative to the maximum response of the control ligand (serotonin) in Table 62.

Setting [4] is: mean of 3 rats, read-out: Plasma concentration, Mean ± SD.
Where [5] appears, read: rat R01, read-out: Plasma concentration, R01.
Setting [6] is: rat R02, read-out: Plasma concentration, R02.
The mark [7] stands for this setting: rat R03, read-out: Plasma concentration, R03.

Like-named read-outs stand apart in the source and are kept apart here.

T1 sequence (P41595 whole entry): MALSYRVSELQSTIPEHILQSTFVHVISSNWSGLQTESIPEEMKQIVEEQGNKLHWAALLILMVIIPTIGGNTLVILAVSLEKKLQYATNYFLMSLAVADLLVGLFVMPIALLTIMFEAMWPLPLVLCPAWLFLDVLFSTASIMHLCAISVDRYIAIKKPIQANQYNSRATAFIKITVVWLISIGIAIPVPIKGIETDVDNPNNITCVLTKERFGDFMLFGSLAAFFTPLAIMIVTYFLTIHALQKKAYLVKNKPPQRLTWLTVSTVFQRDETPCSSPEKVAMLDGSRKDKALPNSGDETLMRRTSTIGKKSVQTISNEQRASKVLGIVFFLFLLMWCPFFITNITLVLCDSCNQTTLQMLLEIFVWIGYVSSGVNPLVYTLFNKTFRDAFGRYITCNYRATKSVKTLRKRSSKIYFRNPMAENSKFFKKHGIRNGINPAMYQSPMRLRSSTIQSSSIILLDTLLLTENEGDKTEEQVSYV

Take `CSc1ccc2[nH]cc(C[C@H]3CCCN3C)c2c1` [(R) I-1, (R)-3-((1-Methylpyrrolidin-2-yl)methyl)-5-(methylthio)-1H-indole]: on human 5-HT2B receptor [1], the IC50 came to 19 nM. At human 5-HT2B receptor [1], this compound gave a Ki of 9.82 nM. Further, the half-life in series [2] (mean of 3 rats, estimated from 2 points only, read-out: Apparent t1/2, Mean ± SD (converted)) is 47.1 ± 10.4 min; in series [2] (rat R01, estimated from 2 points only, read-out: Apparent t1/2, R01 (converted)), 58.5 min; in series [2] (rat R02, estimated from 2 points only, read-out: Apparent t1/2, R02 (converted)) it was 37.9 min; in series [2] (rat R03, estimated from 2 points only, read-out: Apparent t1/2, R03 (converted)), 44.9 min. For the same compound, the AUC(0-t) was found to be 136 ± 22 ng·h/mL in series [2] (mean of 3 rats, read-out: AUC0-tlast, Mean ± SD); 151 ng·h/mL in series [2] (rat R01, read-out: AUC0-tlast, R01); 111 ng·h/mL in series [2] (rat R02, read-out: AUC0-tlast, R02); 147 ng·h/mL in series [2] (rat R03, read-out: AUC0-tlast, R03). Besides, the concentration at 0.25 h in series [2] (setting [4]) was determined as 109 ± 12.9 ng/mL; in series [2] (setting [5]), 120 ng/mL; in series [2] (setting [6]) it was 112 ng/mL; in series [2] (setting [7]) it was 94.7 ng/mL. In addition, the concentration at 1 h in series [2] (setting [4]) came to 46.1 ± 18.1 ng/mL; in series [2] (setting [5]), 42.3 ng/mL; in series [2] (setting [6]), 30.3 ng/mL; in series [2] (setting [7]), 65.8 ng/mL. In addition, the concentration at 4 h in series [2] (setting [4]) stood at 3.96 ± 2.8 ng/mL; in series [2] (setting [5]) it was 7.04 ng/mL; in series [2] (setting [6]), 1.56 ng/mL; in series [2] (setting [7]) it was 3.27 ng/mL. Further, at human 5-HT2B receptor [3], the half-maximal effective concentration (EC50) was 2.74 nM. For the same compound, the “Emax (% of serotonin)” value at human 5-HT2B receptor [3] (calcium mobilization FLIPR, HEK293 cells, relative to maximum response of serotonin) was 62.94 % of serotonin.
